Assay results taken from patent publication US20170150719A1, “FUNGICIDAL PYRAZOLES AND THEIR MIXTURES” (E I DU PONT DE NEMOURS AND COMPANY, priority 2010, published 2017).

Experiments:
Phytophthora infestans = experiment: whole plant or invertebrate; format: in vivo; settings: for pest or weed control at 200 µg/mL: Phytophthora infestans, in Solanum lycopersicum, read-out: Test C rating (disease control); for Test C rating (disease control) / Test C rating (% disease control): tomato late blight, 100 = 100% disease control; for Test C rating (disease control): 0 = no disease control relative to the controls; for Test C rating (% disease control): preventive spray, rating without asterisk
Septoria tritici = experiment: Test F: wheat leaf blotch, preventive spray on wheat seedlings, visual disease rating; format: in vivo; settings: 100 = 100% disease control; for pest or weed control at 200 µg/mL: Zymoseptoria tritici; for pest or weed control at 200 µg/mL / Test F rating (disease control): 0 = no disease control relative to the controls; for Test F rating (% disease control): preventive spray, rating without asterisk
Excerpt: (§1) A hyphen (-) indicates no test results.

[1] = test system: Puccinia recondita f. sp. tritici; experiment: Test G: wheat leaf rust, spray after inoculation (curative) on wheat seedlings, visual disease rating; format: in vivo; settings: 100 = 100% disease control; for pest or weed control at 200 µg/mL / Test G rating (disease control): sprayed after inoculation, 0 = no disease control; for Test G rating (% disease control): spray after inoculation, rating without asterisk
Excerpt: as §1

[2] = test system: Puccinia recondita f. sp. tritici; experiment: Test H: wheat leaf rust, preventive spray on wheat seedlings, visual disease rating; settings: 100 = 100% disease control; for pest or weed control at 200 µg/mL: read-out: Test H rating (disease control), wheat leaf rust, sprayed the day before inoculation; for pest or weed control at 200 µg/mL / Test H rating (disease control): 0 = no disease control; for Test H rating (disease control) / Test H rating (% disease control): wheat leaf rust; for Test H rating (disease control): sprayed the day before inoculation; for Test H rating (% disease control): preventive spray, rating without asterisk
Botrytis cinerea = experiment: Test A: tomato Botrytis, preventive spray on tomato seedlings, visual disease rating; settings: 100 = 100% disease control; for pest or weed control at 200 µg/mL: Botrytis cinerea, in Solanum lycopersicum, read-out: Test A rating (disease control), tomato Botrytis; for pest or weed control at 200 µg/mL / Test A rating (disease control): 0 = no disease control relative to the controls; for Test A rating (disease control) / Test A rating (% disease control): tomato Botrytis; for Test A rating (% disease control): preventive spray, 0 = no control relative to controls, rating without asterisk
Alternaria solani = experiment: Test B: tomato early blight, preventive spray on tomato seedlings, visual disease rating; settings: for pest or weed control at 200 µg/mL: Alternaria solani, in Solanum lycopersicum, read-out: Test B rating (disease control); for Test B rating (disease control) / Test B rating (% disease control): tomato early blight, 100 = 100% disease control; for Test B rating (disease control): 0 = no disease control relative to the controls; for Test B rating (% disease control): preventive spray, rating without asterisk
[3] = test system: Blumeria graminis f. sp. tritici; experiment: Test I: wheat powdery mildew, preventive spray on wheat seedlings, visual disease rating; settings: 100 = 100% disease control; for pest or weed control at 200 µg/mL: Blumeria graminis, in Triticum aestivum, read-out: Test I rating (disease control), wheat powdery mildew; for pest or weed control at 200 µg/mL / Test I rating (disease control): 0 = no disease control relative to the controls; for Test I rating (disease control) / Test I rating (% disease control): wheat powdery mildew; for Test I rating (% disease control): preventive spray, rating without asterisk
Septoria nodorum = experiment: Test E: Septoria glume blotch, preventive spray on wheat seedlings, visual disease rating; settings: 100 = 100% disease control; for pest or weed control at 200 µg/mL: Parastagonospora nodorum, in Triticum aestivum, read-out: Test E rating (disease control), Septoria glume blotch; for pest or weed control at 200 µg/mL / Test E rating (disease control): 0 = no disease control relative to the controls; for Test E rating (disease control): Septoria glume blotch; for Test E rating (% disease control): Septoria glume blotch on wheat, preventive spray, rating without asterisk

Row | Structure (SMILES) | pest or weed control at 200 µg/mL (Phytophthora infestans) | Test C rating (% disease control) (Phytophthora infestans) | Test G rating (% disease control) [1] | Test B rating (% disease control) (Alternaria solani) | Test E rating (% disease control) (Septoria nodorum) | Test H rating (% disease control) [2] | Test A rating (% disease control) (Botrytis cinerea) | Test I rating (% disease control) [3] | also measured
1 | Cc1nn(C)c(Nc2c(Cl)cc(F)cc2Cl)c1-c1ccc(F)cc1Cl [Compound 138, 4-(2-chloro-4-fluorophenyl)-N-(2,6-dichloro-4-fluorophenyl)-1,3-dimethyl-1H-pyrazol-5-amine] | 0% |  |  |  |  |  |  |  | pest or weed control at 200 µg/mL (Septoria tritici): 100%; pest or weed control at 200 µg/mL [1]: 17%; pest or weed control at 200 µg/mL [2]: 100%; pest or weed control at 200 µg/mL (Botrytis cinerea): 100%; pest or weed control at 200 µg/mL (Alternaria solani): 66%; pest or weed control at 200 µg/mL [3]: 99%; pest or weed control at 200 µg/mL (Septoria nodorum): 0%
2 | Cc1nn(C)c(Nc2ccc(Cl)cc2F)c1-c1c(F)cccc1F [compound 162] |  |  |  |  |  |  |  |  | Test C rating (disease control) (Phytophthora infestans): 0%; Test F rating (disease control) (Septoria tritici): 100%; Test G rating (disease control) [1]: 9%; Test H rating (disease control) [2]: 100%; Test A rating (disease control) (Botrytis cinerea): 100%; Test B rating (disease control) (Alternaria solani): 88%; Test I rating (disease control) [3]: 100%; Test E rating (disease control) (Septoria nodorum): 0%
3 | Cc1nn(C)c(Nc2c(F)cc(Cl)cc2Cl)c1-c1ccc(F)cc1F [Compound 161, N-(2,4-dichloro-6-fluorophenyl)-4-(2,4-difluorophenyl)-1,3-dimethyl-1H-pyrazol-5-amine] | 0% |  |  |  |  |  |  |  | Test F rating (disease control) (Septoria tritici): 99%; Test G rating (disease control) [1]: 100%; Test H rating (disease control) [2]: 100%; Test A rating (disease control) (Botrytis cinerea): 100%; Test B rating (disease control) (Alternaria solani): 99%; Test I rating (disease control) [3]: 100%; Test E rating (disease control) (Septoria nodorum): 100%
4 | Cc1nn(C)c(Nc2ccc(C#N)cc2F)c1-c1c(F)cc(F)cc1F [compound 34] |  |  |  |  |  |  |  |  | Test C rating (disease control) (Phytophthora infestans): 9%; Test F rating (disease control) (Septoria tritici): 100%; Test G rating (disease control) [1]: 0%; Test H rating (disease control) [2]: 99%; Test A rating (disease control) (Botrytis cinerea): 100%; Test B rating (disease control) (Alternaria solani): 99%; Test I rating (disease control) [3]: 99%; Test E rating (disease control) (Septoria nodorum): 94%
5 | Cc1nn(C)c(Nc2c(F)cccc2Cl)c1-c1ccc(F)cc1F [Compound 275, N-(2-chloro-6-fluorophenyl)-4-(2,4-difluorophenyl)-1,3-dimethyl-1H-pyrazol-5-amine] |  | 0% | 9% | 99% | 60% |  |  |  | 
6 | CCOc1cc(F)c(-c2c(C)nn(C)c2Nc2c(Cl)cc(F)cc2Cl)c(F)c1 [compound 200] |  | 31% | 0% | 97% | 0% | 86% | 98% | 79% | Test F rating (% disease control) (Septoria tritici): 100%
7 | Cc1nn(C)c(Nc2c(F)cc(Cl)cc2Br)c1-c1ccc(F)cc1Cl [compound 186] |  | 0% | 100% | 100% | 100% | 100% | 100% | 100% | Test F rating (% disease control) (Septoria tritici): 100%
8 | CCOc1ccc(-c2c(C)nn(C)c2Nc2c(F)cc(Cl)cc2Cl)c(F)c1 [compound 190] |  | 0% | 9% | 82% | 0% | 96% | 100% | 95% | 
9 | Cc1nn(C)c(Nc2ccc(F)cc2Cl)c1-c1ccc(F)cc1Cl [Compound 47, N,4-bis(2-chloro-4-fluorophenyl)-1,3-dimethyl-1H-pyrazol-5-amine] | 0% |  |  |  |  |  |  |  | pest or weed control at 200 µg/mL (Septoria tritici): 96%; pest or weed control at 200 µg/mL [1]: 93%; pest or weed control at 200 µg/mL [2]: 99%; pest or weed control at 200 µg/mL (Botrytis cinerea): 100%; pest or weed control at 200 µg/mL (Alternaria solani): 99%; pest or weed control at 200 µg/mL [3]: 100%; pest or weed control at 200 µg/mL (Septoria nodorum): 82%
10 | Cc1nn(C)c(Nc2c(F)cc(F)cc2Cl)c1-c1ccc(F)cc1Cl [Compound 82, N-(2-chloro-4,6-difluorophenyl)-4-(2-chloro-4-fluorophenyl)-1,3-dimethyl-1H-pyrazol-5-amine] | 0% |  |  |  |  |  |  |  | pest or weed control at 200 µg/mL (Septoria tritici): 100%; pest or weed control at 200 µg/mL [1]: 97%; pest or weed control at 200 µg/mL [2]: 100%; pest or weed control at 200 µg/mL (Botrytis cinerea): 99%; pest or weed control at 200 µg/mL (Alternaria solani): 100%; pest or weed control at 200 µg/mL [3]: 100%; pest or weed control at 200 µg/mL (Septoria nodorum): 100%
11 | CCOc1ccc(-c2c(C)nn(C)c2Nc2c(F)cc(Cl)cc2F)c(F)c1 [compound 189] |  | 0% | 0% | 88% | 90% | 98% | 100% | 98% | 
12 | Cc1nn(C)c(Nc2c(F)cc(F)cc2Br)c1-c1ccc(F)cc1Br [Compound 195, N-(2-bromo-4,6-difluorophenyl)-4-(2-bromo-4-fluorophenyl)-1,3-dimethyl-1H-pyrazol-5-amine] |  | 0% | 89% | 100% | 99% |  |  |  | 
13 | COc1ccc(-c2c(C)nn(C)c2Nc2c(F)cc(Cl)cc2Cl)c(F)c1 [compound 191] |  | 0% | 46% | 99% | 92% | 99% | 100% | 99% | 
14 | CCOc1ccc(-c2c(C)nn(C)c2Nc2c(F)cc(F)cc2Cl)c(F)c1 [compound 188] |  | 0% | 0% | 99% | 92% | 98% | 100% | 98% | 
15 | Cc1nn(C)c(Nc2c(F)cc(F)cc2Br)c1-c1c(F)cccc1F [Compound 146, N-(2-bromo-4,6-difluorophenyl)-4-(2,6-difluorophenyl)-1,3-dimethyl-1H-pyrazol-5-amine] | 0% |  |  |  |  |  |  |  | pest or weed control at 200 µg/mL (Septoria tritici): 100%; pest or weed control at 200 µg/mL [1]: 74%; pest or weed control at 200 µg/mL [2]: 98%; pest or weed control at 200 µg/mL (Alternaria solani): 100%; pest or weed control at 200 µg/mL [3]: 100%; pest or weed control at 200 µg/mL (Septoria nodorum): 100%
